Consider four molecules from patent publication US8957078B2, “Compounds useful as inhibitors of ATR kinase” (Vertex Pharmaceuticals Incorporated, priority 2013, dated 2015).

Structures are written as SMILES. Bounds are passed on as bounds.

Assay [1] deals with HCT116 colorectal cancer cells. Description: Cisplatin Sensitization Assay (96 h cell viability MTS). The format is cell-based. As to conditions: concentration of compound required to reduce the IC50 of Cisplatin alone by at least 3-fold; HCT116, 96 h MTS. Summed up:
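HCT116 cells treated 96 h at 37 °C with compound and cisplatin together as a full matrix of 2-fold dilutions, each from 10 μM final top concentration. Viability by MTS, absorbance 490 nm. Value reported: compound concentration lowering cisplatin IC50 at least 3-fold.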

Assay [2] deals with T1, ATR kinase, in the presence of partner proteins ATRIP, CLK2 and TopBP1 (Homo sapiens, UniProt Q13535).
T1 construct: in the presence of 4 nM full-length ATR, 40 nM full-length ATRIP
Put plainly: ATR-Complex Inhibition Assay (radioactive-phosphate incorporation). The settings on record: Ki(app); 4 nM full-length ATR, 40 nM ATRIP, 40 nM CLK2, 600 nM TopBP1(A891-S1105), 10 μM ATP, 25° C. The format is biochemical. As to the method:
Compounds were screened for their ability to inhibit ATR kinase, in the presence of partner proteins ATRIP, CLK2 and TopBP1, using a radioactive-phosphate incorporation assay. Assays were carried out in a mixture of 50 mM Tris/HCl (pH 7.5), 10 mM MgCl2 and 1 mM DTT. Final substrate concentrations were 10 μM [g-33P]ATP (3.5 μCi 33P ATP/nmol ATP, Perkin Elmer, Massachusetts, USA) and 800 μM target peptide (ASELPASQPQPFSAKKK (SEQ. ID NO: 1)), Isca Biochemicals, Cambridgeshire, UK).
Assays were carried out at 25° C. in the presence of 4 nM full-length ATR, 40 nM full-length ATRIP, 40 nM full-length CLK2 and 600 nM TopBP1(A891-S1105). An enzyme stock buffer solution was prepared containing all of the reagents listed above, with the exception of target peptide, ATP and the test compound of interest. This enzyme stock was pre-incubated for 30 minutes at 25° C. […]
After removing mean background values for all of the data points, Ki(app) data were calculated from non-linear regression analysis of the initial rate data using the Prism software package (GraphPad Prism version 6.0c for Macintosh, GraphPad Software Inc., San Diego, USA).

For assay [3], the target named is T2, ATR kinase (full-length ATR) (Homo sapiens, UniProt Q13535).
T2 construct: in the presence of 5 nM full-length ATR
Description: ATR Inhibition Assay (radioactive-phosphate incorporation). The format is biochemical. As to conditions: Ki(app); 5 nM full-length ATR, 10 μM ATP, 800 μM target peptide, 25° C.

T2 sequence (Q13535 whole entry): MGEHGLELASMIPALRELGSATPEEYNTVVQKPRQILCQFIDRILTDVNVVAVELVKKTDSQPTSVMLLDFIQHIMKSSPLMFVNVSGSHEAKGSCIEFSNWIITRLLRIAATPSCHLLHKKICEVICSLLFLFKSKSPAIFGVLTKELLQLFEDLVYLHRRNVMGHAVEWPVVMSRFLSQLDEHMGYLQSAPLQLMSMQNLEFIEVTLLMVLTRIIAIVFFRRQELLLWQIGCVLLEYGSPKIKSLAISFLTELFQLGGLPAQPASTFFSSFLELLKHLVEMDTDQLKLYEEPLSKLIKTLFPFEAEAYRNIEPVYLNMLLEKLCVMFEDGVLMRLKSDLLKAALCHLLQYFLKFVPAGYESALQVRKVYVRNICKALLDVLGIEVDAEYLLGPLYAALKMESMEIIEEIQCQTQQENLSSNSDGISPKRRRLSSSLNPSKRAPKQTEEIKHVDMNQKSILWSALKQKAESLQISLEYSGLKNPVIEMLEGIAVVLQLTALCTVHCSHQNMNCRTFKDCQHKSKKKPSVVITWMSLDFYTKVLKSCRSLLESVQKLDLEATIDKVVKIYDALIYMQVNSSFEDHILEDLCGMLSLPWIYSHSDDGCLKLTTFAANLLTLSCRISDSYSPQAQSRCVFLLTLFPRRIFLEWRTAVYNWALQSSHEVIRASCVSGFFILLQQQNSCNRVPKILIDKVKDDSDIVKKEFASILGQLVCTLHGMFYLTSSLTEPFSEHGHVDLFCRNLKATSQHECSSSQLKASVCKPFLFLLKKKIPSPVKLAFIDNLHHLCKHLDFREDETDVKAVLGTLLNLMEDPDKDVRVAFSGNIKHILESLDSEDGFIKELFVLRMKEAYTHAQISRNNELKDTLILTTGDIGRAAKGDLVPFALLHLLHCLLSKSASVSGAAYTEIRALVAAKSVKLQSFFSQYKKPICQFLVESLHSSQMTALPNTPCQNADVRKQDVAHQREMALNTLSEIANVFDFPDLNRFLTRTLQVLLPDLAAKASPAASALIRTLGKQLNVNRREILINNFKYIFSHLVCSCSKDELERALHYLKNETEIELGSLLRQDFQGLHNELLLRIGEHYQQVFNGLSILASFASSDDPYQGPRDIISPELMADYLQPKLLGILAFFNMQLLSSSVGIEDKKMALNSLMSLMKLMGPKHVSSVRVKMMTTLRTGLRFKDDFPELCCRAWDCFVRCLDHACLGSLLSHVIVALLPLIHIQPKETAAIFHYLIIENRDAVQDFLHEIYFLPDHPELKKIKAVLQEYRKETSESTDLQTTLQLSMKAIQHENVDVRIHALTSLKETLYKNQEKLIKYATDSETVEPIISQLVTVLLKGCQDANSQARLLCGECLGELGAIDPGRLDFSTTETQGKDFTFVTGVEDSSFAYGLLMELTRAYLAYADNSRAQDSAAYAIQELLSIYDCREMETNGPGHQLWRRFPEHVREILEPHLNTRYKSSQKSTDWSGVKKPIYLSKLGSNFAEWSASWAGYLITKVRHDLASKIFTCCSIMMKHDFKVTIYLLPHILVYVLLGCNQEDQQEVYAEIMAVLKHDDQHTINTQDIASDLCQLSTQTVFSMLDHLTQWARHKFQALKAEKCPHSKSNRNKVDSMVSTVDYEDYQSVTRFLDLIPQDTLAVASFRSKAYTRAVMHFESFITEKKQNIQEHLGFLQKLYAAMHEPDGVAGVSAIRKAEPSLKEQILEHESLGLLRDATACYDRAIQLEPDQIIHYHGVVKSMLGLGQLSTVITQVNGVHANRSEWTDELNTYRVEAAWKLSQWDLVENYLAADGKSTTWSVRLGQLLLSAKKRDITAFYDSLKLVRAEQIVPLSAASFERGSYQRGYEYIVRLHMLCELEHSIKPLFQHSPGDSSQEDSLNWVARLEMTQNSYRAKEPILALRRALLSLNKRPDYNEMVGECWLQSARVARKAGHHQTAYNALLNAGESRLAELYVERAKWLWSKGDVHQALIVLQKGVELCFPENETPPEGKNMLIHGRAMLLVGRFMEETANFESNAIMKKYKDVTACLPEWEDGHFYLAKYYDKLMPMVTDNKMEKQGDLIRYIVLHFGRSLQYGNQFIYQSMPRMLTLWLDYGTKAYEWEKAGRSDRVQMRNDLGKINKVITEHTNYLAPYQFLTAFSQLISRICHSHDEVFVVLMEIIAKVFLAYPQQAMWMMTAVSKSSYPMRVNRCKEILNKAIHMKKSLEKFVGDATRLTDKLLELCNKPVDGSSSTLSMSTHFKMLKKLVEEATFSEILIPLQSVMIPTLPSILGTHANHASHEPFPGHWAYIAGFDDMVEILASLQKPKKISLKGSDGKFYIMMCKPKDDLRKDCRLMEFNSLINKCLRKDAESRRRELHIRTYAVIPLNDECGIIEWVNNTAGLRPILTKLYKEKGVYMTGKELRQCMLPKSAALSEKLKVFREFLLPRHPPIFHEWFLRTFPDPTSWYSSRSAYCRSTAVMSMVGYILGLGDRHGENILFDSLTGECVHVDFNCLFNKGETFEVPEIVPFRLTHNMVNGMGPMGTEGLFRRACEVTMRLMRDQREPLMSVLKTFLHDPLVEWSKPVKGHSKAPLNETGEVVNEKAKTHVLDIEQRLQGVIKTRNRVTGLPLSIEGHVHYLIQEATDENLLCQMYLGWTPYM
T1 sequence (Q13535 whole entry): as above
T1 sequence (Q8WXE1 whole entry partner): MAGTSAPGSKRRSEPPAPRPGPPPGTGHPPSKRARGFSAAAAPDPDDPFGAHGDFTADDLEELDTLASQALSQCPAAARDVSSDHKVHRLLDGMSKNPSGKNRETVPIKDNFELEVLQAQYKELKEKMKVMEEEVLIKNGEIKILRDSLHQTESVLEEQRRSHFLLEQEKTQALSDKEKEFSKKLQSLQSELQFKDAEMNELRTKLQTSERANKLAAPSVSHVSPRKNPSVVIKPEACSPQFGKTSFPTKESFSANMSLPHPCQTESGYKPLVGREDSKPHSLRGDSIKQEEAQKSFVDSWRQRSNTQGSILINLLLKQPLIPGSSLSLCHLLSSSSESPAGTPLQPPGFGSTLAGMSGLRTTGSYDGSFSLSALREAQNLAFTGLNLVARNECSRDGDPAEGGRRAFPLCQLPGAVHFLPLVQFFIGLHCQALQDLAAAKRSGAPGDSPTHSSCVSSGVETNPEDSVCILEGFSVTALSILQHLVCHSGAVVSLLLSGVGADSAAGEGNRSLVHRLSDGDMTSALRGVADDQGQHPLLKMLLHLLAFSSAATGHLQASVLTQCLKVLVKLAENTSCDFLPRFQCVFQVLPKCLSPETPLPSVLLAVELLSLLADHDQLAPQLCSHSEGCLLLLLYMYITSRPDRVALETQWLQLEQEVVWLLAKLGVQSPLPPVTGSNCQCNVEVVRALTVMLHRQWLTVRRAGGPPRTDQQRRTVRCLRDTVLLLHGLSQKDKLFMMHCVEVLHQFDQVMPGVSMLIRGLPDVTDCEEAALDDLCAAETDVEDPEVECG

As to `Nc1nn2cc(F)cnc2c1C(=O)Nc1ccncc1N1CCN(C2COC2)CC1` [I-C-1, 2-amino-6-fluoro-N-(3-(4-(oxetan-3-yl)piperazin-1-yl)pyridin-4-yl)pyrazolo[1,5-a]pyrimidine-3-carboxamide], in assay [1], the “Cisplatin Sensitization Assay” value is “++ (Compounds with a Cisplatin sensitization value >0.02 μM but <0.2 μM are marked with “++.”)”. Further, the Ki in assay [2] is under 10 nM; in assay [3], 10 to 1000 nM.

Regarding `CN1CCN(C(=O)c2ccc(-c3cnncc3NC(=O)c3c(N)nn4cc(F)cnc34)cc2)CC1` [I-B-13, 2-amino-6-fluoro-N-(5-(4-(4-methylpiperazine-1-carbonyl)phenyl)pyridazin-4-yl)pyrazolo[1,5-a]pyrimidine-3-carboxamide], the “Cisplatin Sensitization Assay” value in assay [1] is “++ (Compounds with a Cisplatin sensitization value >0.02 μM but <0.2 μM are marked with “++.”)”. Besides, the Ki is under 10 nM in assay [2] and 10 to 1000 nM in assay [3].

As to `CN1CC[C@@H](Oc2ncncc2NC(=O)c2c(N)nn3cc(F)cnc23)C1` [I-A-10, (R)-2-amino-6-fluoro-N-(4-((1-methylpyrrolidin-3-yl)oxy)pyrimidin-5-yl)pyrazolo[1,5-a]pyrimidine-3-carboxamide], in assay [1], the “Cisplatin Sensitization Assay” value is “+ (Compounds with a Cisplatin sensitization value >0.2 μM but <5 μM are marked with “+.”)”. In addition, in assay [3], the Ki was 10 to 1000 nM.

In the case of `Nc1nn2cc(F)cnc2c1C(=O)Nc1cnncc1N1CCOCC1` [I-B-12, 2-amino-6-fluoro-N-(5-morpholinopyridazin-4-yl)pyrazolo[1,5-a]pyrimidine-3-carboxamide], in assay [1], the “Cisplatin Sensitization Assay” value is recorded as “++ (Compounds with a Cisplatin sensitization value >0.02 μM but <0.2 μM are marked with “++.”)”. Besides, the Ki in assay [3] was 10 to 1000 nM.
